Measured values: patent US20240254129A1, “HETEROCYCLIC COMPOUNDS AND USES THEREOF” (Kumquat Biosciences Inc., priority 2021, published 2024)

Legend:
[1] = biological target: GST-tagged K-Ras mutant / His-tagged hSOS1 (Homo sapiens, UniProt P01116); assay: HTRF assay, K-Ras mutant / SOS1 interaction; format: binding; settings: compound nos. 401-703; read-out: IC50 against mutant Kras
Outline: (§1)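 Compounds tested in duplicate from 10 μM down to 0.01 μM, incubated about 10 min or longer with GST-K-Ras/anti-GST-Eu and His-hSOS1/anti-6His-XL665 in ~5 mM HEPES pH 7.4 buffer with ~150 mM NaCl, DTT, BSA and Igepal. IC50 derived from 665/620 nm emission ratio.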

[2] = biological target: T1, wildtype Kras / hSOS1 (Homo sapiens, UniProt P01116); assay: HTRF assay, wildtype Kras / SOS1 interaction; format: binding; settings: compound nos. 401-703; read-out: IC50 against wildtype Kras
T1 construct: made in house; host or cells: E. coli BL21 (DE3)
Outline: as §1

T1 sequence (P01116 1-188 isoform P01116-2): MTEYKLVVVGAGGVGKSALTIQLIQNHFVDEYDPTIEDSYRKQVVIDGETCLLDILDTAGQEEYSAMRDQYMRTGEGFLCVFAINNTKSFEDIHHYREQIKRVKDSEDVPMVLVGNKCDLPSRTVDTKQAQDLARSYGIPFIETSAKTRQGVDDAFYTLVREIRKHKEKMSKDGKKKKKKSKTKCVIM
Sequence of GST-tagged K-Ras mutant / His-tagged hSOS1 (P01116 whole entry G12D, form open): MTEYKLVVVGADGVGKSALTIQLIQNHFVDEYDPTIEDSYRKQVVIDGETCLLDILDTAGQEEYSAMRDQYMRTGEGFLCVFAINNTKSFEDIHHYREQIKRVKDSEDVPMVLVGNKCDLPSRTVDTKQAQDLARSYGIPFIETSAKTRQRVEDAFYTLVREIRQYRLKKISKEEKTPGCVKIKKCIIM

Compound | IC50 [1] [nM] | IC50 [2] [nM]
Oc1cc(-c2ncc3c(N4C[C@H]5CC[C@@H](C4)N5)nc(OC[C@@]45CCCN4C[C@H](F)C5)nc3n2)c2ccccc2c1 [Compound 418, 4-(5-((1R,5S)-3,8-diazabicyclo[3.2.1]octan-3-yl)-7-(((2R,7aS)-2-fluorotetrahydro-1H-pyrrolizin-7a(5H)-yl)methoxy)pyrimido[4,5-d]pyrimidin-2-yl)naphthalen-2-ol] | > 500 | < 500
CN1CCC[C@H]1COc1nc2c(c(N3CCNCC(F)(F)C3)n1)CCN(c1cc(O)cc3ccccc13)C2 [Compound 419, (S)-4-(4-(6,6-difluoro-1,4-diazepan-1-yl)-2-((1-methylpyrrolidin-2-yl)methoxy)-5,8-dihydropyrido[3,4-d]pyrimidin-7(6H)-yl)naphthalen-2-ol] | < 500 | < 500
CN1CCCC1CCn1nc(N2CC3CCC(C2)N3)c2ccc(-c3ccc(F)c4sc(N)nc34)c(F)c2c1=O (stereo not shown) [Compound 420, 7-(2-amino-7-fluorobenzo-[d]thiazol-4-yl)-4-(3,8-diazabicyclo[3.2.1]octan-3-yl)-8-fluoro-2-(2-(1-methyl-pyrrolidin-2-yl)ethyl)phthal-azin-1(2H)-one] | > 500 | < 500
Fc1c(-c2cccc3c2C2CC2C3)c(Cl)cc2c(N3CC4CCC(C3)N4)nc(OC[C@@]34CCCN3C[C@H](F)C4)nc12 (stereo partly drawn) [Compound 422, 4-(3,8-diazabicyclo[3.2.1]-octan-3-yl)-6-chloro-8-fluoro-2-(((2R,7aS)-2-fluoro-tetrahydro-1H-pyrrolizin-7a(5H)-yl)methoxy)-7-(1,1a,6,6a-tetrahydrocyclo-propa[a]inden-2-yl)quin-azoline] | > 500 | < 500
Fc1c(-c2cccc3scc(Cl)c23)c(Cl)cc2c(N3CC4CCC(C3)N4)nc(OC[C@@]34CCCN3C[C@H](F)C4)nc12 [Compound 423, 4-(3,8-diazabicyclo[3.2.1]-octan-3-yl)-6-chloro-7-(3-chlorobenzo[b]thiophen-4-yl)-8-fluoro-2-(((2R,7aS)-2-fluorotetrahydro-1H-pyrrolizin-7a(5H)-yl)meth-oxy)quinazoline] | > 500 | < 500
CO[C@@H]1CN(C)C[C@H]1Oc1nc(N2CC3CCC(C2)N3)c2cc(CCC#N)c(-c3ccc(F)c4sc(N)nc34)c(F)c2n1 [Compound 424, 3-(7-(2-amino-7-fluoro-benzo[d]thiazol-4-yl)-4-(3,8-diazabicyclo[3.2.1]octan-3-yl)-8-fluoro-2-(((3R,4R)-4-methoxy-1-methylpyrrolidin-3-yl)oxy)quinazolin-6-yl)-propanenitrile] | > 500 | < 500
Cc1cc2[nH]ncc2c(-c2c(Cl)cc3c(N4CC5CCC(C4)N5)nc(OC[C@@]45CCCN4C[C@H](F)C5)nc3c2F)c1Cl [Compound 425, 4-(3,8-diazabicyclo[3.2.1]-octan-3-yl)-6-chloro-7-(5-chloro-6-methyl-1H-indazol-4-yl)-8-fluoro-2-(((2R,7aS)-2-fluorotetrahydro-1H-pyrrolizin-7a(5H)-yl)meth-oxy)quinazoline] | > 500 | < 500
Cc1ccc2sc(N)nc2c1-c1c(Cl)cc2c(N3CCNCC(F)(F)C3)nc(OCC34CCCN3CCC4)nc2c1O [Compound 426, 7-(2-amino-5-methylbenzo-[d]thiazol-4-yl)-6-chloro-4-(6,6-difluoro-1,4-diazepan-1-yl)-2-((tetrahydro-1H-pyrrolizin-7a(5H)-yl)meth-oxy)quinazolin-8-ol] | > 500 | < 500
CN1CCC[C@H]1COc1nc(N2CCCC(C(N)=O)CC2)c2cc(Cl)c(-c3cccc4sc(N)nc34)c(F)c2n1 (stereo partly drawn) [Compound 427, 1-(7-(2-aminobenzo[d]-thiazol-4-yl)-6-chloro-8-fluoro-2-(((S)-1-methylpyr-rolidin-2-yl)methoxy)quin-azolin-4-yl)azepane-4-carboxamide] | < 500 | < 500
CN(C)CC1(COc2nc(N3CC4CCC(C3)N4)c3ccc(-c4ccc(F)c5sc(N)nc45)c(F)c3n2)CC1 [Compound 428, 4-(4-(3,8-diazabicyclo-[3.2.1]-octan-3-yl)-2-((1-((dimethylamino)methyl)-cyclopropyl)methoxy)-8-fluoroquinazolin-7-yl)-7-fluorobenzo[d]thiazol-2-amine] | > 500 | < 500
Nc1cccc(-c2c(Cl)cc3c(N4CCCCCC4)nc(OCC45CCCN4CCC5)nc3c2F)c1F [Compound 430, 3-(4-(azepan-1-yl)-6-chloro-8-fluoro-2-((tetrahydro-1H-pyrrolizin-7a(5H)-yl)meth-oxy)quinazolin-7-yl)-2-fluoroaniline] | > 500 | < 500
Nc1nc2c(-c3c(Cl)cc4c(N5CCCC(N)CC5)nc(OC[C@@]56CCCN5C[C@H](F)C6)nc4c3F)ccc(F)c2s1 (stereo partly drawn) [Compound 431, 4-(4-(4-aminoazepan-1-yl)-6-chloro-8-fluoro-2-(((2R,7aS)-2-fluorotetra-hydro-1H-pyrrolizin-7a(5H)-yl)methoxy)quinazolin-7-yl)-7-fluorobenzo[d]thiazol-2-amine] | < 500 | < 500
CN1CCC[C@H]1COc1nc2c(c(N3CCNCC(F)(F)C3)n1)CCC(c1cccc3sc(N)nc13)C2 (stereo partly drawn) [Compound 432, 4-(4-(6,6-difluoro-1,4-diazepan-1-yl)-2-(((S)-1-methylpyrrolidin-2-yl)methoxy)-5,6,7,8-tetrahydroquinazolin-7-yl)benzo[d]thiazol-2-amine] | > 500 | < 500
N#CC1CCCN(c2nc(OC[C@@]34CCCN3C[C@H](F)C4)nc3c(F)c(-c4ccc(F)c5sc(N)nc45)c(Cl)cc23)CC1 (stereo partly drawn) [Compound 433, 1-(7-(2-amino-7-fluoro-benzo[d]thiazol-4-yl)-6-chloro-8-fluoro-2-(((2R,7aS)-2-fluorotetra-hydro-1H-pyrrolizin-7a(5H)-yl)methoxy)quin-azolin-4-yl)azepane-4-carbonitrile] | < 500 | < 500
Nc1nc2c(-c3c(Cl)cc4c(N5CCC[C@@H](N)CC5)nc(OC[C@@]56CCCN5C[C@H](F)C6)nc4c3F)ccc(F)c2s1 [Compound 434, 4-(4-((R)-4-aminoazepan-1-yl)-6-chloro-8-fluoro-2-(((2R,7aS)-2-fluorotetra-hydro-1H-pyrrolizin-7a(5H)-yl)methoxy)quinazolin-7-yl)-7-fluorobenzo[d]thiazol-2-amine] | < 500 | < 500
Nc1nc2c(-c3c(Cl)cc4c(N5CCCN(S(=O)(=O)C6CC6)CC5)nc(OC[C@@]56CCCN5C[C@H](F)C6)nc4c3F)ccc(F)c2s1 [Compound 435, 4-(6-chloro-4-(4-(cyclo-propylsulfonyl)-1,4-diazepan-1-yl)-8-fluoro-2-(((2R,7aS)-2-fluorotetra-hydro-1H-pyrrolizin-7a(5H)-yl)methoxy)quinazolin-7-yl)-7-fluorobenzo[d]thiazol-2-amine] | < 500 | < 500
Cc1c(N)sc2cccc(-c3ccc4c(N5CC6CCC(C5)N6)nc(OC[C@@]56CCCN5C[C@H](F)C6)nc4c3F)c12 [Compound 437, 4-(4-(3,8-diazabicyclo-[3.2.1]octan-3-yl)-8-fluoro-2-(((2R,7aS)-2-fluorotetra-hydro-1H-pyrrolizin-7a(5H)-yl)methoxy)quinazolin-7-yl)-3-methylbenzo[b]thio-phen-2-amine] | > 500 | < 500
Cc1ccc2cnn(C)c2c1-c1c(Cl)cc2c(N3CC4CCC(C3)N4)nc(OCC3(CN4CCCC4)CC3)nc2c1F [Compound 438, 4-(3,8-diazabicyclo[3.2.1]-octan-3-yl)-6-chloro-7-(1,6-dimethyl-1H-indazol-7-yl)-8-fluoro-2-((1-(pyrrolidin-1-ylmethyl)cyclopropyl)meth-oxy)quinazoline] | > 500 | < 500
CN1CCC[C@H]1COc1nc(N2CCCC(NS(C)(=O)=O)CC2)c2cc(Cl)c(-c3cccc4sc(N)nc34)c(F)c2n1 (stereo partly drawn) [Compound 439, N-(1-(7-(2-aminobenzo[d]-thiazol-4-yl)-6-chloro-8-fluoro-2-(((S)-1-methyl-pyrrolidin-2-yl)methoxy)-quinazolin-4-yl)azepan-4-yl)methanesulfonamide] | < 500 | < 500
Nc1cccc(-c2c(Cl)cc3c(N4CC5CCC(C4)N5)nc(OCC45CCCN4CCC5)nc3c2F)c1F [Compound 440, 3-(4-(3,8-diazabicyclo-[3.2.1]-octan-3-yl)-6-chloro-8-fluoro-2-((tetrahydro-1H-pyrrolizin-7a(5H)-yl)meth-oxy)quinazolin-7-yl)-2-fluoroaniline] | > 500 | < 500
CN1CCC[C@H]1COc1nc(N2CCCC(N3CC(N)C3)CC2)c2cc(Cl)c(-c3cccc4sc(N)nc34)c(F)c2n1 (stereo partly drawn) [Compound 441, 4-(4-(4-(3-aminoazetidin-1-yl)azepan-1-yl)-6-chloro-8-fluoro-2-(((S)-1-methyl-pyrrolidin-2-yl)methoxy)-quinazolin-7-yl)benzo[d]-thiazol-2-amine] | > 500 | < 500
CN1CCC[C@H]1COc1nc(N2CCCCC(N)C2)c2cc(Cl)c(-c3cccc4sc(N)nc34)c(F)c2n1 (stereo partly drawn) [Compound 442, 4-(4-(3-aminoazepan-1-yl)-6-chloro-8-fluoro-2-(((S)-1-methylpyrrolidin-2-yl)-methoxy)quinazolin-7-yl)-benzo[d]thiazol-2-amine] | < 500 | < 500
Nc1nc2c(-c3c(Cl)cc4c(N5CC6CCC(C5)N6)nc(OCC5(CN6CC[C@H](F)C6)CC5)nc4c3F)ccc(F)c2s1 [Compound 443, 4-(4-(3,8-diazabicyclo-[3.2.1]octan-3-yl)-6-chloro-8-fluoro-2-((1-(((S)-3-fluoropyrrolidin-1-yl)meth-yl)cyclopropyl)methoxy)-quinazolin-7-yl)-7-fluoro-benzo[d]thiazol-2-amine] | < 500 | < 500
